The source made the active and inactive calls.
Legend:
[1] = biological target: Induced myeloid leukemia cell differentiation protein Mcl-1 (Homo sapiens, UniProt Q07820); type: functional
[2] = biological target: T1, NADPH oxidase 1 (Homo sapiens, UniProt Q9Y5S8); test: Luminescence-based cell-based dose response assay to identify inhibitors of NADPH oxidase 1 (NOX1).; type: functional
T1 sequence (Q9Y5S8 whole entry): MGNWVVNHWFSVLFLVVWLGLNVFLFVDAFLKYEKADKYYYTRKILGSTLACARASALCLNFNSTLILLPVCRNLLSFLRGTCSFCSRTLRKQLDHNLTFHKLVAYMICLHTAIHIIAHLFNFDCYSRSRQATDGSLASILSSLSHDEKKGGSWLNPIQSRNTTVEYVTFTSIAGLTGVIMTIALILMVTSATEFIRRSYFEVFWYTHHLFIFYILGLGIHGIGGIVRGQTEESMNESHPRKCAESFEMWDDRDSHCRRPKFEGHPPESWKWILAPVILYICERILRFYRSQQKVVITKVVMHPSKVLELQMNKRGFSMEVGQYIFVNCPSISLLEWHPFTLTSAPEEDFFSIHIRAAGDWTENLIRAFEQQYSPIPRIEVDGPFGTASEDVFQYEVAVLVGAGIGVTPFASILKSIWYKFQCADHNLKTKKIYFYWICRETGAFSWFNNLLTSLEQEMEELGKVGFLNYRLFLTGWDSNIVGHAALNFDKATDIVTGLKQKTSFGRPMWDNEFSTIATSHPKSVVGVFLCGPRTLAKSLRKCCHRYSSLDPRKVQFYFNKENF

[3] = biological target: Estrogen receptor (Homo sapiens, UniProt P03372); test: potentiators of ERα–SRC-1 coactivator binding, dose response, biochemical, TR-FRET, ERα LBD (AID 737)
Sequence of Estrogen receptor (P03372 whole entry, the tested form may be a part): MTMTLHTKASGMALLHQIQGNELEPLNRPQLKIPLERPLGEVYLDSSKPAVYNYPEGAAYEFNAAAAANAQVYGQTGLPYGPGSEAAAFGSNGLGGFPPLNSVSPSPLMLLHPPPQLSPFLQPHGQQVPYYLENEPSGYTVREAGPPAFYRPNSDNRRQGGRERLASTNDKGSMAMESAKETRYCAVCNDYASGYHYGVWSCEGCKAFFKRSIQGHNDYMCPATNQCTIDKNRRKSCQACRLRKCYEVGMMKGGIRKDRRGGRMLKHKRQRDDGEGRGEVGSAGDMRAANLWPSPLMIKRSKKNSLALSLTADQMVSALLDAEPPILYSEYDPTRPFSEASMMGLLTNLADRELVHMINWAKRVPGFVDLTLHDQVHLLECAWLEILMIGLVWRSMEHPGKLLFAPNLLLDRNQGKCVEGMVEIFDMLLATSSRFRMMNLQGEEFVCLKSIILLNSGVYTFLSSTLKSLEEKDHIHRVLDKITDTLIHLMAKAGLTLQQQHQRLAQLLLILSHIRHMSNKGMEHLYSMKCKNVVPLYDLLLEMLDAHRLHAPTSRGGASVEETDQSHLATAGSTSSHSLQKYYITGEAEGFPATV

[4] = biological target: Muscarinic acetylcholine receptor M4 (Rattus norvegicus, UniProt P08485); test: rat M4 receptor positive allosteric modulation check, dose response, selectivity assay for M1 muscarinic PAM project, cell-based, CHO-K1 rat M4/Gqi5, Fluo-4 calcium, ACh EC20 (AID 2438); type: functional
Sequence of Muscarinic acetylcholine receptor M4 (P08485 whole entry): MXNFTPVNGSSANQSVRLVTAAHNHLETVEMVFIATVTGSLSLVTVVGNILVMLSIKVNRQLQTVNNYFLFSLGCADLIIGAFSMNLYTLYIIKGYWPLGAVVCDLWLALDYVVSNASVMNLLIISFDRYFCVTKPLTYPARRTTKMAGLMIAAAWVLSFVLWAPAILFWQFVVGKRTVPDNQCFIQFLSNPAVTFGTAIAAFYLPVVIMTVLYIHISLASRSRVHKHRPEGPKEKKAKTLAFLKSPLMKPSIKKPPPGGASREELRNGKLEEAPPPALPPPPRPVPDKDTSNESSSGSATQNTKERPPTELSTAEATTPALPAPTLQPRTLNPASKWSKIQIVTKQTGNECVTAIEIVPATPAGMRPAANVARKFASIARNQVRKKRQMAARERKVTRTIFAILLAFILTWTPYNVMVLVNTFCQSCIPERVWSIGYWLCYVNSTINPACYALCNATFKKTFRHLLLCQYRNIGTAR

[5] = biological target: Muscarinic acetylcholine receptor M3 (Homo sapiens, UniProt P20309); test: human M3 receptor positive allosteric modulation, dose response, selectivity assay for M1 PAM project, cell-based, CHO-K1 hM3, Fluo-4 calcium, ACh EC20 (AID 2428); type: functional
Sequence of Muscarinic acetylcholine receptor M3 (P20309 whole entry): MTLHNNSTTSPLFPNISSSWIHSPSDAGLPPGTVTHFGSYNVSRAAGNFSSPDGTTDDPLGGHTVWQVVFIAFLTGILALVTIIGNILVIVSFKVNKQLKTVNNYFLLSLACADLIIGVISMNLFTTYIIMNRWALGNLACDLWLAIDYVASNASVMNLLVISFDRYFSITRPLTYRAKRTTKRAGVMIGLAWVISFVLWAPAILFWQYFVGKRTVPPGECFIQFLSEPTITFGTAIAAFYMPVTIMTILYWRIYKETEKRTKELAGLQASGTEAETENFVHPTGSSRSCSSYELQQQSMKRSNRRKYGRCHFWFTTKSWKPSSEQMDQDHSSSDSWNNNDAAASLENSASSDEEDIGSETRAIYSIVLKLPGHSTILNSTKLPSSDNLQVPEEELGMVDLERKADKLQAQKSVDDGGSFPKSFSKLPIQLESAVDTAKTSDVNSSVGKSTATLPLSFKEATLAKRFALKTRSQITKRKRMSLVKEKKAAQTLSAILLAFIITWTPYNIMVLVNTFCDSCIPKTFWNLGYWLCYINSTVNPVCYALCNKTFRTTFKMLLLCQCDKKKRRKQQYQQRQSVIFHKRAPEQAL

[6] = biological target: Muscarinic acetylcholine receptor M1 (Rattus norvegicus, UniProt P08482); test: rat M1 positive allosteric modulator potency, dose response, cell-based, calcium mobilization, CHO-K1, ACh EC20 (AID 2425); type: functional
Sequence of Muscarinic acetylcholine receptor M1 (P08482 whole entry): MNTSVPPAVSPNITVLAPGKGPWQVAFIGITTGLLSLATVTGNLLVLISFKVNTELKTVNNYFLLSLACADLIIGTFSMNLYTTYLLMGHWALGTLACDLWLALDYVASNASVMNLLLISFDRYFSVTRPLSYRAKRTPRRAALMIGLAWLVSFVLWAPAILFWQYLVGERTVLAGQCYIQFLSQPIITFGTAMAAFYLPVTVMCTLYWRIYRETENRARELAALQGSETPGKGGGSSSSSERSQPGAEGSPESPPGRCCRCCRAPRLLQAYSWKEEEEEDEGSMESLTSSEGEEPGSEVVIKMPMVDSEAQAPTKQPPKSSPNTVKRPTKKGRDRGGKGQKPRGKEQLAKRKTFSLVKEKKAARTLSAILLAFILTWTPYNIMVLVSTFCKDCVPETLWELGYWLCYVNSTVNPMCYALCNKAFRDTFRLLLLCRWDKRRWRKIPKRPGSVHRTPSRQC

[7] = biological target: T1, NADPH oxidase 1; type: functional, cell-based
[8] = biological target: T2, Neuropeptide Y receptor type 2 (Homo sapiens, UniProt P49146); test: Fluorescence-based cell-based high-throughput dose response assay for agonists of NPY-Y2. [Related pubchem assays: 1703 (Screening assay (CNGC inhibitors).), 1359 (Screening assay (NPY-Y2 potentiators or agonists).), 1304 (Screening assay (NPY-Y1 potentiators or agonists).), 1710 (Screening assay (NPY-Y2 agonists).), 1791 (Summary AID.)]; type: functional
T2 sequence (P49146 whole entry): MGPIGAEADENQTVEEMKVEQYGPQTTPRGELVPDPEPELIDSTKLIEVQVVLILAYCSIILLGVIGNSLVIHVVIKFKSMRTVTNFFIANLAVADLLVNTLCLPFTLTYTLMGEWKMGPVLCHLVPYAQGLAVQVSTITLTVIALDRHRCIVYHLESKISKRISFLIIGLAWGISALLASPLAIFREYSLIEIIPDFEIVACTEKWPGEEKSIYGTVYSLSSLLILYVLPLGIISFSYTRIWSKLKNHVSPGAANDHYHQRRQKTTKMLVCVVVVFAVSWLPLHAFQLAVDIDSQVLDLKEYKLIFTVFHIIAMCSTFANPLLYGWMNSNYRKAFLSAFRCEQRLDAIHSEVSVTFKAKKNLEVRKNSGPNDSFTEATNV

[9] = C. albicans growth with fluconazole, confirmation, fluorescence, retest (AID 2467); type: functional, cell-based
[10] = test system: HEK293; test: Fluorescence-based counterscreen for potentiators or agonists of NPY-Y2: cell-based high-throughput dose response assay to identify inhibitors of cyclic nucleotide gated ion channel (CNGC) activity. In this assay, the parental HEK293 cell line transfected with a cyclic-nucleotide gated ion channel (CNGC)-based cAMP sensor is used to measure inhibition of isoproterenol-induced CNGC activity by test compound.; type: functional; conditions: Homo sapiens;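 further: stimulus is 1 µM isoproterenol at EC100 plus PDE inhibitor Ro 20-1724 at 25 µM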
[11] = biological target: T3, Histone-lysine N-methyltransferase NSD2 (Homo sapiens, UniProt O96028); type: biochemical
T3 sequence (O96028 whole entry): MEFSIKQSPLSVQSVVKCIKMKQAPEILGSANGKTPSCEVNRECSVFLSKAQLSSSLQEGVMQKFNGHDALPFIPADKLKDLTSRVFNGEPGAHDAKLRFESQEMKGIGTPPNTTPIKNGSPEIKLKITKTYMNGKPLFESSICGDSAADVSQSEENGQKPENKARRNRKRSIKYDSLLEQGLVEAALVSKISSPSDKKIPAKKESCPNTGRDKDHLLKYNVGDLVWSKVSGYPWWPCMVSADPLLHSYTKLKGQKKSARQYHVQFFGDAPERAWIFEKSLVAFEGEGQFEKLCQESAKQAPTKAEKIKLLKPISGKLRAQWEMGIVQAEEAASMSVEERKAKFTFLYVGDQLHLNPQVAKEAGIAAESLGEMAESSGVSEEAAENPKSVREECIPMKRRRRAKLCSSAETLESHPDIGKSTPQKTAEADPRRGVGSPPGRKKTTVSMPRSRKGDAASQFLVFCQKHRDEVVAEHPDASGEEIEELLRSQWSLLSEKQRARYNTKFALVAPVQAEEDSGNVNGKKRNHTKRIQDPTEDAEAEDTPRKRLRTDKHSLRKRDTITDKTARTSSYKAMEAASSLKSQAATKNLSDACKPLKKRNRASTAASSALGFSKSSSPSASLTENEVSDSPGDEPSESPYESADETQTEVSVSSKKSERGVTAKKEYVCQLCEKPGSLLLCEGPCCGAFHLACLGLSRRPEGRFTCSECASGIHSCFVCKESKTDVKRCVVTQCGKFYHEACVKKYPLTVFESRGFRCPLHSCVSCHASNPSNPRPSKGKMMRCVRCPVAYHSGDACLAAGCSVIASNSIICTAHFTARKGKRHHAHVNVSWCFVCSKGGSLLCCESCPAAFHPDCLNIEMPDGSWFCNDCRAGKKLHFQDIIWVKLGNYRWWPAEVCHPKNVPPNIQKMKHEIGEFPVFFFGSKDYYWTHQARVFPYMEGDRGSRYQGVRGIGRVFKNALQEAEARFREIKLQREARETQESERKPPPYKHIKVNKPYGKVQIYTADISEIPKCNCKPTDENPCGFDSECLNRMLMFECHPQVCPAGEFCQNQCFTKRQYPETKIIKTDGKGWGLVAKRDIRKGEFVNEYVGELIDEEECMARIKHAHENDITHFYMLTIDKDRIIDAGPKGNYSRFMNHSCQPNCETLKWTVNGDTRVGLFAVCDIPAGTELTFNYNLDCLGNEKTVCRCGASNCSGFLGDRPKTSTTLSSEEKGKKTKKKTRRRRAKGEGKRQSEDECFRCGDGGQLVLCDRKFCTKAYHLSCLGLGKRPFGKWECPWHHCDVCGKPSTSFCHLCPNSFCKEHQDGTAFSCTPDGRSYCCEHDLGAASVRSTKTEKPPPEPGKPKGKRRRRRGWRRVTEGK

[12] = biological target: T4, Neuropeptide Y receptor type 1 (Homo sapiens, UniProt P25929); test: Fluorescence-based counterscreen for potentiators or agonists of NPY-Y2: cell-based high-throughput dose response assay for potentiators or agonists of NPY-Y1.; type: functional
T4 sequence (P25929 whole entry): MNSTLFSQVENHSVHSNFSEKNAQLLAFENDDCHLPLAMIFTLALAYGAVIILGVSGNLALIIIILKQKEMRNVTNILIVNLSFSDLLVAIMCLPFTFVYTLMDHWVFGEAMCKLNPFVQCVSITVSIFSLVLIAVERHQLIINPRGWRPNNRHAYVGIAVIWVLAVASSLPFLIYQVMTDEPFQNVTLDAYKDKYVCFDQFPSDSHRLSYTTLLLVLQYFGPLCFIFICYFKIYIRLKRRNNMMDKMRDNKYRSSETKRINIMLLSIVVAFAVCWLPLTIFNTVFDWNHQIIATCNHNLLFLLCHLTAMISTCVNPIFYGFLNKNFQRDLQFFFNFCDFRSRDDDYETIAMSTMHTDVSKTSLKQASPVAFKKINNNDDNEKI

[13] = Luminescent dose response cell-based high throughput screening assay for inhibitors of the Janus kinase 2 mutant JAK2V617F. [Related pubchem assays: 1446 (Primary screen.), 1521 (Confirmation assay.), 1486 (Counter screen.)]; type: functional
[14] = biological target: T5, RNA-binding protein pos-1 (Caenorhabditis elegans, UniProt G5EF15); test: inhibitors of POS-1/mex-3 RNA binding, dose response, biochemical, fluorescence polarization (AID 1964);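 further: purified POS-1 fused to maltose binding protein made in E. coli; potency of compounds blocking POS-1 binding to fluorescent RNA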
T5 sequence (G5EF15 whole entry): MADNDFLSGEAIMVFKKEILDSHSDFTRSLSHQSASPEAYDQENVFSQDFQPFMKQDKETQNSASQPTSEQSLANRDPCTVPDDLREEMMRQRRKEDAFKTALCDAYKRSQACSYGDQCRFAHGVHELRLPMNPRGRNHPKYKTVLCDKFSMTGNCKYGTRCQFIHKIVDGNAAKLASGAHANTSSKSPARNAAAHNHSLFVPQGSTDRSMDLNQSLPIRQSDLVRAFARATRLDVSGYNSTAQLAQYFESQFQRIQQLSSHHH

[15] = NIH-3T3 fibroblast cytotoxicity, dose response, cytotoxicity control, cell-based, fluorescence, Alamar Blue, secondary assay (AID 2327); type: functional;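 further: NIH-3T3 mouse fibroblasts cultured with fluconazole at 8 µg/mL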
[16] = biological target: T4, Neuropeptide Y receptor type 1; test: Fluorescence-based counterscreen for agonists of NPY-Y2: cell-based high-throughput dose response assay for agonists of NPY-Y1.; type: functional
[17] = biological target: T6, Zinc finger protein mex-5 (Caenorhabditis elegans, UniProt Q9XUB2); test: MEX-5/TCR-2 RNA interaction inhibitors, dose response, biochemical, C. elegans, fluorescence polarization (AID 1960)
T6 sequence (Q9XUB2 whole entry): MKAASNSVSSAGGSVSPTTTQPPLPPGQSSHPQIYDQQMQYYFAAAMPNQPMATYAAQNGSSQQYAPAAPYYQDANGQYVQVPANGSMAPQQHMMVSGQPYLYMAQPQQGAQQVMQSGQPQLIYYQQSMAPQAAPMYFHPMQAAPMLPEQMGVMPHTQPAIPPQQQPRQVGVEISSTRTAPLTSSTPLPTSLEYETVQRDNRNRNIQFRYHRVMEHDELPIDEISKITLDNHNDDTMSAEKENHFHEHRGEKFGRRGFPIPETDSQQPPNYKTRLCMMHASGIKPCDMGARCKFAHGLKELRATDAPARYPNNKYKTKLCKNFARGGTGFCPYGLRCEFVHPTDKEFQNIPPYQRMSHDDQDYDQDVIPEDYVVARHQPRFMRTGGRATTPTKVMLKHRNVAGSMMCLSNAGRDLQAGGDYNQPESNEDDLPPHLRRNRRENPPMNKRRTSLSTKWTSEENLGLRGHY

[18] = biological target: Nonstructural protein 1 (Influenza A virus, UniProt Q194T2); type: functional, Influenza A virus (A/California/07/2009(H1N1))
Sequence of Nonstructural protein 1 (Q194T2 whole entry): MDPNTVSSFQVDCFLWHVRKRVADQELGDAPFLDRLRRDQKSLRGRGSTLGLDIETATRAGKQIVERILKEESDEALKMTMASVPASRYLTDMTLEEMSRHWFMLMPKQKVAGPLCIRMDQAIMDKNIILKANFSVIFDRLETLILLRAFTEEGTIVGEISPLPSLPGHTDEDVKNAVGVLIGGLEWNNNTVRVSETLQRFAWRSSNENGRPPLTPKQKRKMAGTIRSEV

[19] = biological target: T2, Neuropeptide Y receptor type 2; test: Fluorescence-based cell-based high-throughput dose response assay for potentiators or agonists of NPY-Y2. [Related pubchem assays: 1539 (Screening assay (NPY-Y2 potentiators or agonists).), 1703 (Screening assay (CNGC inhibitors).), 1359 (Screening assay (NPY-Y2 potentiators or agonists).), 1304 (Screening assay (NPY-Y1 potentiators or agonists).) …; type: functional
[20] = biological target: Epstein-Barr nuclear antigen 1 (Epstein-Barr virus (strain B95-8) (HHV-4) (Human herpesvirus 4), UniProt P03211); test: EBNA-1 inhibitors, dose response, biochemical, fluorescence polarization, 1536-well (AID 2381); parameters: species or system human gammaherpesvirus 4;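 further: fluorescence polarization of a Cy5 DNA probe bound by EBNA-1 protein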
Sequence of Epstein-Barr nuclear antigen 1 (P03211 whole entry): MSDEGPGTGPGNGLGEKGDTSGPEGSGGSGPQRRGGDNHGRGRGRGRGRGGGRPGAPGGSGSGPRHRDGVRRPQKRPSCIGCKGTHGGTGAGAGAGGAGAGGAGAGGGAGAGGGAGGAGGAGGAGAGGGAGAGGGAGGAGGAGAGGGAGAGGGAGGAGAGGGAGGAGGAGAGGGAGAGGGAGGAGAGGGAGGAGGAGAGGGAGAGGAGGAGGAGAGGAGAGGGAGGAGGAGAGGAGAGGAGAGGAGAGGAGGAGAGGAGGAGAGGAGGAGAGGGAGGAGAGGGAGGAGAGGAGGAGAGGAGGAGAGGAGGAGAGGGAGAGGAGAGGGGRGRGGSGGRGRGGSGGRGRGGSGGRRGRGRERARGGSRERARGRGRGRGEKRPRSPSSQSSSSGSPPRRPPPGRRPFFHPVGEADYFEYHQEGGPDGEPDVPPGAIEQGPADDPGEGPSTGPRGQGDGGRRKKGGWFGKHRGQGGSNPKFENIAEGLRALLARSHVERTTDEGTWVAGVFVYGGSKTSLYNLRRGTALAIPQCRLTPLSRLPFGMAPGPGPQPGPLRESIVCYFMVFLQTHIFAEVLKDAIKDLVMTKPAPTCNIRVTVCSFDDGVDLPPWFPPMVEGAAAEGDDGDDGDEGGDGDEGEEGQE

[21] = biological target: Lytic switch protein BZLF1 (Epstein-Barr virus (strain B95-8) (HHV-4) (Human herpesvirus 4), UniProt P03206); test: EBV ZTA inhibitors, dose response, counter-screen for EBNA-1 inhibitor project, biochemical, fluorescence polarization, Epstein-Barr virus, 1536-well (AID 2377); parameters: species or system human gammaherpesvirus 4;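 further: fluorescence polarization of Cy5-labelled ZRE DNA probe bound by purified Zta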
Sequence of Lytic switch protein BZLF1 (P03206 whole entry): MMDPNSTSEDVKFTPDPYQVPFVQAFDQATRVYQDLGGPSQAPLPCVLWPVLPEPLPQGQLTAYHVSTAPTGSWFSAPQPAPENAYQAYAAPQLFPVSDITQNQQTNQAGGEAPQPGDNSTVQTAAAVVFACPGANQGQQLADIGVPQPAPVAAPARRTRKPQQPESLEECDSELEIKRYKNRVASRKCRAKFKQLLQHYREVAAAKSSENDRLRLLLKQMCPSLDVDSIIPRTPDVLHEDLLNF

[22] = biological target: T2, Neuropeptide Y receptor type 2; type: functional, cell-based
[23] = biological target: T4, Neuropeptide Y receptor type 1; type: functional

Sequence of Induced myeloid leukemia cell differentiation protein Mcl-1 (Q07820 whole entry): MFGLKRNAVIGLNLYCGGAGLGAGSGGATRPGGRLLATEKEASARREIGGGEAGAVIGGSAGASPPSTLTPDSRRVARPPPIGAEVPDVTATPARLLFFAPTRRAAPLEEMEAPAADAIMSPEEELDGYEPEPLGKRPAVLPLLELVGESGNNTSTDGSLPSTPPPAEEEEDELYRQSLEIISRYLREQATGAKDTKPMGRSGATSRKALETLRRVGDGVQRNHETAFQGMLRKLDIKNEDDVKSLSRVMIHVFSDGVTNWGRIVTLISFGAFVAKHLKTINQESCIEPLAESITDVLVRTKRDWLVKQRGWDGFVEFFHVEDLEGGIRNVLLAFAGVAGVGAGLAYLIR

CCN(CC)c1ccc(NC(=O)Nc2ccc(C(C)=O)cc2)cc1
IC50 [1]: 4.48 µM (not active) | IC50 [2]: 0.252 µM (active)

Cc1ccc(CN(Cc2cc3cc(C)ccc3[nH]c2=O)C(=O)N2CCOCC2)cc1
EC50 [3]: 12.6 µM (not active)

Cn1cc(-c2ccc(CN3C(=O)C(=O)c4ccccc43)cc2)cn1
EC50 [4]: 2.71 µM (active) | EC50 [5]: 2.71 µM (active) | EC50 [6]: 2.42 µM (active)

COc1ccccc1OC(=O)c1cc2ccccc2s1
IC50 [7]: > 17 µM (not active)

O=C1/C(=C/c2ccc(O)c(O)c2)SC(=S)N1Nc1ccccc1
EC50 [8]: > 35.4 µM (not active) | EC50 [9]: > 38 µM (not active) | EC50 [10]: > 35.4 µM (not active) | AC50 [11]: 1.49 µM (active) | EC50 [12]: > 35.4 µM (not active) | IC50 [13]: 1.53 µM (active) | EC50 [14]: 39.2 µM (active) | EC50 [15]: 41.6 µM (active) | EC50 [16]: > 11.8 µM (not active) | EC50 [17]: 16.2 µM (active) | IC50 [18]: 31.6 µM (active) | EC50 [19]: 26.6 µM (not active)

CC(=O)Nc1ccc(S(=O)(=O)N2CCN(Cc3nc(O)c4c(C)c(C)sc4n3)CC2)cc1
IC50 [20]: > 148 µM (not active) | IC50 [21]: > 111 µM (not active)

CCCCC(=O)N/N=C/c1ccc(N2CCOCC2)c([N+](=O)[O-])c1
IC50 [22]: 16.3 µM (not active) | IC50 [23]: 26.7 µM (not active)

— ChEMBL document CHEMBL1201862, “PubChem BioAssay data set” (2004)
